Results reported in patent US20140329868A1, “METHODS FOR TREATING HYPERTENSION” (TAKEDA PHARMACEUTICALS U.S.A., INC., priority 2005, published 2014).

How the values were obtained:
[1] = system: subjects having a systolic BP≧160 mmHg or diastolic BP≧95 mmHg (elevated blood pressure); assay: Example 1: blood pressure change in subjects with elevated blood pressure, none taking antihypertensive agents at baseline (two double-blind studies); format: in vivo, human; conditions: 300/100 mg QD
Procedure: A total of 103 subjects (9 in the placebo group, 26 in each the 2-[3-cyano-4-(2-methylpropoxy)phenyl]-4-methylthiazole-5-carboxylic acid (hereinafter referred to as “febuxostat”) 80 mg and 120 mg once daily (hereinafter referred to as “QD”) groups, 10 in the febuxostat 240 mg QD group and 32 in the 4-hydroxy-3,4-pyrazolopyrimidine (hereinafter referred to as “allopurinol”) 300/100 mg QD group), having a systolic BP≧160 mmHg or diastolic BP≧95 mmHg, and thus considered to have “elevated blood pressure”, were examined. Allopurinol […] xanthine oxidoreductase inhibitor.
None of the above subjects were taking any antihypertensive agents at the baseline (start) of the study. These […] subjects were part of two (2) double-blind (hereinafter referred to as “DB”) studies. One study was of 28 weeks in duration. During this time, the subjects received 80 mg, 120 mg or 240 mg QD of febuxostat, placebo or allopurinol 300 or 100 mg QD, depending on the subject's renal function. The second study was 52 weeks in duration. During this time, the subjects received 80 mg or 120 mg QD of febuxostat or allopurinol 300 mg QD.

[2] = system: subjects having a systolic BP≧160 mmHg or diastolic BP≧95 mmHg (elevated blood pressure); assay: Example 2: blood pressure change in subjects with elevated blood pressure, none taking angiotensin-converting enzyme inhibitors (two double-blind studies); format: in vivo, human; conditions: 300/100 mg QD
Procedure: None of these subjects were taking any angiotensin-coverting enzyme inhibitors, but might have been taking some other type of antihypertensive drug at the baseline (start) of the study. These 158 subjects were part of two (2) DB studies. One study was of 28 weeks in duration during which subjects received 80 mg, 120 mg or 240 mg QD of febuxostat or placebo or allopurinol 300 or 100 mg QD, depending on the subject's renal function. The second study was 52 weeks in duration during which subjects received 80 mg or 120 mg QD of febuxostat or allopurinol 300 mg QD. […] A total of 52 weeks of treatment was completed by 15 subjects in the febuxostat 80 mg QD group, 9 in the febuxostat 120 mg QD group and 17 in the allopurinol 300/100 mg QD group. Because of the shorter duration of one of the two DB studies, no subject in the placebo and febuxostat 240 mg QD groups was treated for 52 weeks.

[3] = system: subjects having a systolic BP≧160 mmHg or diastolic BP≧95 mmHg (elevated blood pressure); assay: Example 3: blood pressure change in subjects with elevated blood pressure, none taking angiotensin antagonists (two double-blind studies); format: in vivo, human; conditions: 300/100 mg QD
Procedure: None of these subjects were taking any angiotensin antagonists, but might have been taking some other type of antihypertensive drug at the baseline (start) of the study. These 187 subjects were part of two (2) DB studies. One study was of 28 weeks in duration during which subjects received 80 mg, 120 mg or 240 mg QD of febuxostat or placebo or allopurinol 300 or 100 mg QD, depending on the subject's renal function. The second study was of 52 weeks in duration during which subjects received 80 mg or 120 mg QD of febuxostat or allopurinol 300 mg QD. Of these 187 subjects, all completed 4 weeks of treatment and 132 completed 28 weeks of treatment. A total of 52 weeks of treatment was completed by 15 subjects in the febuxostat 80 mg QD group, 11 in the febuxostat 120 mg QD group and 22 in the allopurinol 300/100 mg QD group. Because of the shorter duration of one of the 2 DB studies, no subject in the placebo and febuxostat 240 mg QD groups were treated for 52 weeks.

[4] = target: T1, purine nucleotide phosphorylase (Homo sapiens, UniProt P00491); conditions: at a therapeutically effective amount in a subject; stated as known; cited from earlier work
T1 sequence (P00491 1-289): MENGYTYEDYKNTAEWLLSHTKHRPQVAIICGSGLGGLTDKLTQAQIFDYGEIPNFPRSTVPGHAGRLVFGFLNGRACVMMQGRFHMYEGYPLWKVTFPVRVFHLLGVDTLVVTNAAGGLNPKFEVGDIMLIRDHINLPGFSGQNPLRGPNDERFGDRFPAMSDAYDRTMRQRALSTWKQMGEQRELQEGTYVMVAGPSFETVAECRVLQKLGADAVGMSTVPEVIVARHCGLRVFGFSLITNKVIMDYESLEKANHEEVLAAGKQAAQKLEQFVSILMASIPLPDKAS

[5] = target: orotidine-5-monophosphate decarboxylase (Homo sapiens, UniProt P11172); conditions: at a therapeutically effective amount in a subject; stated as known; cited from earlier work
Chain of orotidine-5-monophosphate decarboxylase (P11172 whole entry): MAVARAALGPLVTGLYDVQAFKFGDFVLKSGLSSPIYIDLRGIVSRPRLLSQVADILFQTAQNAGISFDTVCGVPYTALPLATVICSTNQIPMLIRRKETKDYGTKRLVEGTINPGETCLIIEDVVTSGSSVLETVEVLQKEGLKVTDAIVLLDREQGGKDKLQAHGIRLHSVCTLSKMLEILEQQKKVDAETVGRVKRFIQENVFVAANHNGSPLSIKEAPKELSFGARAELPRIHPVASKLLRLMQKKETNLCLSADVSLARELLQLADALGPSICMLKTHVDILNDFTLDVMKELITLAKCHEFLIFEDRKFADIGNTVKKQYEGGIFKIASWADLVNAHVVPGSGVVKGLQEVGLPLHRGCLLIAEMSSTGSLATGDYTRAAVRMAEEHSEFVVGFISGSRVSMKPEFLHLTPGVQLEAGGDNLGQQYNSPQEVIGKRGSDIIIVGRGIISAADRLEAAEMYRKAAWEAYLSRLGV

For Oc1ncnc2[nH]ncc12 [allopurinol, 4-hydroxy-3,4-pyrazolopyrimidine], the “mean change from baseline for diastolic BP” value ([1]; after 4 weeks of treatment) was −6.3 mmHg, the “mean change from baseline for mean arterial BP” value ([1]; after 4 weeks of treatment) was −6.8 mmHg and the “mean change from baseline for systolic BP” value ([1]; after 4 weeks of treatment) was −7.7 mmHg. For the same molecule, the “mean change from baseline for diastolic BP” value ([1]; after 28 weeks of treatment) was −8.2 mmHg, the “mean change from baseline for mean arterial BP” value ([1]; after 28 weeks of treatment) was −7.8 mmHg and the “mean change from baseline for systolic BP” value ([1]; after 28 weeks of treatment) was −7.0 mmHg. The “mean change from baseline for diastolic BP” value ([1]; after 52 weeks of treatment) was −10.9 mmHg, the “mean change from baseline for mean arterial BP” value ([1]; after 52 weeks of treatment) was −10.4 mmHg and the “mean change from baseline for systolic BP” value ([1]; after 52 weeks of treatment) was −9.4 mmHg. The “mean change from baseline for diastolic BP” value ([2]; after 4 weeks of treatment) was −6.7 mmHg, the “mean change from baseline for mean arterial BP” value ([2]; after 4 weeks of treatment) was −6.7 mmHg and the “mean change from baseline for systolic BP” value ([2]; after 4 weeks of treatment) was −6.6 mmHg. For the same molecule, the “mean change from baseline for diastolic BP” value ([2]; after 28 weeks of treatment) was −10.1 mmHg, the “mean change from baseline for mean arterial BP” value ([2]; after 28 weeks of treatment) was −9.8 mmHg and the “mean change from baseline for systolic BP” value ([2]; after 28 weeks of treatment) was −9.1 mmHg. For the same molecule, the “mean change from baseline for diastolic BP” value ([2]; after 52 weeks of treatment) was −11.4 mmHg, the “mean change from baseline for mean arterial BP” value ([2]; after 52 weeks of treatment) was −10.8 mmHg and the “mean change from baseline for systolic BP” value ([2]; after 52 weeks of treatment) was −9.5 mmHg. For the same molecule, the “mean change from baseline for diastolic BP” value ([3]; after 4 weeks of treatment) was −5.7 mmHg, the “mean change from baseline for mean arterial BP” value ([3]; after 4 weeks of treatment) was −6.1 mmHg and the “mean change from baseline for systolic BP” value ([3]; after 4 weeks of treatment) was −7.0 mmHg. The “mean change from baseline for diastolic BP” value ([3]; after 28 weeks of treatment) was −8.7 mmHg, the “mean change from baseline for mean arterial BP” value ([3]; after 28 weeks of treatment) was −8.8 mmHg and the “mean change from baseline for systolic BP” value ([3]; after 28 weeks of treatment) was −9.0 mmHg. For the same molecule, the “mean change from baseline for diastolic BP” value ([3]; after 52 weeks of treatment) was −11.6 mmHg, the “mean change from baseline for mean arterial BP” value ([3]; after 52 weeks of treatment) was −11.1 mmHg and the “mean change from baseline for systolic BP” value ([3]; after 52 weeks of treatment) was −10.0 mmHg. For the same molecule, the “effect on the activity of purine nucleotide phosphorylase” value [4] was “has an effect” and the “effect on the activity of orotidine-5-monophosphate decarboxylase” value [5] was “has an effect”.
